Test results: paper PMC3495945, “Org 214007-0: A Novel Non-Steroidal Selective Glucocorticoid Receptor Modulator with Full Anti-Inflammatory Properties and Improved Therapeutic Index” (PLoS ONE, 2012)

Key:
GR = biological target: T1, GR (Homo sapiens, UniProt P04150); assay: ChIP-Seq analysis of GR binding to DNA in THP-1 cells; type: cell-based; design: endogenous in cells; host or cells: THP-1; conditions: for number of ChIP-Seq clusters compared to vehicle: THP-1, 1 μM, 1 hour
T1 sequence (P04150 1-777): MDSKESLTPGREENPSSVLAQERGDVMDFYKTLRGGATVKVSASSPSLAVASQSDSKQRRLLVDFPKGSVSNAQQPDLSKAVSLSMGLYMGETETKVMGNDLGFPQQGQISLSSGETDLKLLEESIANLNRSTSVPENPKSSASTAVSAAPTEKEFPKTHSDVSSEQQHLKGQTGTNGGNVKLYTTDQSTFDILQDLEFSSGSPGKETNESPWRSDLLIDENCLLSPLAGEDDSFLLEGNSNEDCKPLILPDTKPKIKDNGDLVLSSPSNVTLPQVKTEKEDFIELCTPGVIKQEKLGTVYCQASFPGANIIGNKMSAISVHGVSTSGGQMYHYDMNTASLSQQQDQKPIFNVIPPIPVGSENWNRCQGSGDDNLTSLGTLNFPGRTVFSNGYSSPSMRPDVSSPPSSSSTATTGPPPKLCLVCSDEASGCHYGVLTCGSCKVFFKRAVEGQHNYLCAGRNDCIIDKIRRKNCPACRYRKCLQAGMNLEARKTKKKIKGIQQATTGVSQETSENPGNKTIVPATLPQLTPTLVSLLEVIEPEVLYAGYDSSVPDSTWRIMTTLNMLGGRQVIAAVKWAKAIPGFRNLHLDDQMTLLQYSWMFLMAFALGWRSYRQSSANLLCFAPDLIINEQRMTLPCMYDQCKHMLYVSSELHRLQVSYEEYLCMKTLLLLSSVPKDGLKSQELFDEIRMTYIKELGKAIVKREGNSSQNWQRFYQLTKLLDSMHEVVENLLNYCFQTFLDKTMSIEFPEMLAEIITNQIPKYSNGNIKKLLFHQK
Method: From the THP-1 samples that were used for gene expression analysis after 6 hours, samples were drawn after 1 hour and used for ChIP–Seq analysis at Genpathway (Carlsbad, CA). For precipitation of genomic DNA regions antibody against GR (Santa Cruz sc-8992) was used. Details are provided in SI text. The obtained amplified DNA libraries were sent to Illumina Sequencing Services (San Diego, CA) for sequencing on a Genome Analyzer II. Sequence files were analyzed with the Genomatix Genome Analyzer Workbench from Genomatix (Genomatix Software GmbH, Munich). Sequences were clustered using default parameter settings and aligned against the human genome version GRCh37/hg19. Clusters were merged using the Replicate Analysis module from the Workbench package (more detailed information in SI text).
Cells were fixed with 1% formaldehyde for 15 min and quenched with 0.125 M glycine. Chromatin was isolated by adding lysis buffer, followed by disruption with a Dounce homogenizer (cells) or motor pestle (tissue). Lysates were sonicated and the DNA sheared to an average length of 300-500 bp. Genomic DNA (Input) was prepared by treating aliquots of chromatin with RNase, proteinase K and heat for de-crosslinking, followed by ethanol precipitation. Pellets were resuspended and the resulting DNA was quantified on a NanoDrop spectrophotometer. Extrapolation to the original chromatin volume allowed quantitation of the total chromatin yield.
An aliquot of chromatin (28.5 ug) was precleared with protein A agarose beads (Invitrogen). Genomic DNA regions of interest were isolated using 4 ug antibody against GR (Santa Cruz sc-8992). Complexes were washed, eluted from the beads with SDS buffer, and subjected to RNase and proteinase K treatment. Crosslinks were reversed by incubation overnight at 65 C, and ChIP DNA was purified by phenol-chloroform extraction and ethanol precipitation.

[1] = tested on: human neonatal foreskin fibroblasts; assay: BioMAP assay HDF3CGF; type: cell-based; conditions: 1 μM, prednisolone = 100%
Method: Next, effects of Org 214007-0 on the cytokine release by primary human whole blood cells treated with either LPS or anti-CD28/PMA were tested. […] These assays make use of different types of primary human cells, in this case coronary artery smooth muscle cells and neonatal foreskin fibroblasts, in an inflammatory environment, [28]. […] When all repressed and induced proteins are taken into account, a relative TI value for Org 214007-0 could be deduced of 1.7 in coronary artery smooth muscle cells and of 2.2 in neonatal foreskin fiboblasts.

| Structure (SMILES) | number of ChIP-Seq clusters compared to vehicle (GR; inflammatory condition) | number of ChIP-Seq clusters compared to vehicle (GR; non-stimulated condition) | Max. eff., activation of PAI-1 [1] [%] | binding sites also contained within the prednisolone set (GR; non-stimulated, 2080 vs 9413 sites) [%] |
| --- | --- | --- | --- | --- |
| C[C@]12C=CC(=O)C=C1CC[C@@H]1[C@@H]2[C@@H](O)C[C@@]2(C)[C@H]1CC[C@]2(O)C(=O)CO [prednisolone, reference compound] | 3471 | 9413 | 100 |  |
| Cc1nnsc1C(=O)N[C@H]1CCN2c3ccc(C#N)cc3[C@@H](C)c3ccccc3[C@@H]2C1 [Org 214007-0] | 2502 | 2080 | 55 | 99.5 |
